Experiments:
Assay type in all cases: cell-based, human
[1] = system: PANC-1; assay: SRB colorimetric assay of cell growth and viability, PANC-1; conditions: 48 hours exposure; for CC50: read-out: LC50 PANC-1
Excerpt: (§1) The finality of this assay is to interrupt the growth of a “in vitro” tumor cell culture by means a continued exhibition of the cells to the sample to be testing.
(§2) This form of the assay employs 96 well cell culture microplates of 9 mm diameter (Faircloth, 1988; Mosmann, 1983). Most of the cell lines are obtained from American Type Culture Collection (ATCC) derived from different human cancer types.
(§3) Cells are maintained in RPMI 1640 10% FBS, supplemented with 0.1 g/l penicillin and 0.1 g/l streptomycin sulfate and then incubated at 37° C., 5% CO2 and 98% humidity. For the experiments, cells were harvested from subconfluent cultures using trypsin and resuspended in fresh medium before plating.
(§4) Cells are seeded in 96 well microtiter plates, at 5×10^3 cells per well in aliquots of 195 μL medium, and they are allowed to attach to the plate surface by growing in drug free medium for 18 hours. Afterward, samples are added in aliquots of 5 μL in a ranging from 10 to 10^−8 μg/mL, dissolved in DMSO:EtOH:PBS (0.5:0.5:99). After 48 hours exposure, the antitumor effect are measured by the SRB methodology: cells are fixed by adding 50 μL of cold 50% (wt/vol) trichloroacetic acid (TCA) and incubating for 60 minutes at 4° C. Plates are washed with deionized water and dried. One hundred μL of SRB solution (0.4% wt/vol in 1% acetic acid) is added to each microtiter well and incubated for 10 minutes at room temperature. Unbound SRB is removed by washing with 1% acetic acid. Plates are air dried and bound stain is solubilized with Tris buffer. Optical densities are read on a automated spectrophotometric plate reader at a single wavelength of 490 nm.
(§5) The values for mean+/− SD of data from triplicate wells are calculated. Some parameters for cellular responses can be calculated: GI=growth inhibition, TGI=total growth inhibition (cytostatic effect) and LC=cell killing (cytotoxic effect).

[2] = system: HeLa; assay: SRB colorimetric assay of cell growth and viability, HeLa; conditions: 48 hours exposure; for CC50: read-out: LC50 HELA
Excerpt: as §1, §2, §3, §4, §5

[3] = system: SK-MEL-28; assay: SRB colorimetric assay of cell growth and viability, SK-MEL-28; conditions: 48 hours exposure; for CC50: read-out: LC50 MEL-28
Excerpt: as §1, §2, §3, §4, §5

[4] = system: A-549; assay: SRB colorimetric assay of cell growth and viability, A-549; conditions: 48 hours exposure; for GI50: read-out: GI50 A-549; for CC50: read-out: LC50 A-549
Excerpt: as §1, §2, §3, §4, §5

[5] = system: IGROV-ET; assay: SRB colorimetric assay of cell growth and viability, IGROV-ET; conditions: 48 hours exposure; for CC50: read-out: LC50 IGROV-ET
Excerpt: as §1, §2, §3, §4, §5

[6] = system: DU-145; assay: SRB colorimetric assay of cell growth and viability, DU-145; conditions: 48 hours exposure
Excerpt: as §1, §2, §3, §4, §5

[7] = system: K-562; assay: SRB colorimetric assay of cell growth and viability, K-562; conditions: 48 hours exposure; for CC50: read-out: LC50 K-562
Excerpt: as §1, §2, §3, §4, §5

[8] = system: IGROV-1; assay: SRB colorimetric assay of cell growth and viability, IGROV-1; conditions: 48 hours exposure
Excerpt: as §1, §2, §3, §4, §5

[9] = system: HeLa-APL; assay: SRB colorimetric assay of cell growth and viability, HeLa-APL; conditions: 48 hours exposure; for CC50: read-out: LC50 HELA-APL
Excerpt: as §1, §2, §3, §4, §5

[10] = system: LoVo; assay: SRB colorimetric assay of cell growth and viability, LoVo; conditions: 48 hours exposure; for CC50: read-out: LC50 LOVO
Excerpt: as §1, §2, §3, §4, §5

[11] = system: HT-29; assay: SRB colorimetric assay of cell growth and viability, HT-29; conditions: 48 hours exposure; for GI50: read-out: GI50 HT-29; for CC50: read-out: LC50 HT-29
Excerpt: as §1, §2, §3, §4, §5

[12] = system: LoVo-Dox; assay: SRB colorimetric assay of cell growth and viability, LoVo-Dox; conditions: 48 hours exposure; for CC50: read-out: LC50 LOVO-DOX
Excerpt: as §1
A colorimetric type of assay, using sulforhodamine B (SRB) reaction has been adapted for a quantitative measurement of cell growth and viability [following the technique described by Philip Skehan, et al. (1990), New colorimetric cytotoxicity assay for anticancer drug screening, J. Natl. Cancer Inst., 82:1107-1112].
as §2, §3, §4, §5

Row | SMILES | GI50 [1] | TGI PANC-1 [1] | CC50 [1] | GI50 [2] | TGI HELA [2] | CC50 [2] | GI50 [3] | TGI MEL-28 [3] | CC50 [3] | TGI A-549 [4] | GI50 [4] | CC50 [4] | GI50 [5] | TGI IGROV-ET [5] | CC50 [5] | GI50 [6] | LC50 (concentration causing 50% net cell kill) [6] | TGI DU-145 [6] | GI50 [7] | TGI K-562 [7] | other results
1 | C/C=C1\NC(=O)[C@H](Cc2ccccc2)NC(=O)[C@@H](C(C)C)NC(=O)[C@@H]([C@@H](C)CC)NC(=O)[C@H](NC(=O)[C@H](NC(=O)[C@H](CCCN)NC(=O)[C@H]2CCCN2C(=O)[C@H](NC(=O)[C@@H](NC(=O)[C@@H](NC(=O)[C@H]2CCCN2C(=O)CCCC(C)C)[C@@H](C)O)C(C)C)C(C)C)[C@@H](C)CC)[C@@H](C)OC(=O)[C@H](C(C)C)NC1=O [Compound 37, [D-Pro^13]-KF] | 15.4 nM | 3.12E−08 Molar | 62.8 nM | 12.9 nM | 2.83E−08 Molar | 62 nM | 76.6 nM | 2.76E−07 Molar | 1300 nM | 3.90E−08 Molar | 17.4 nM | 813 nM | 1210 nM | 2.24E−06 Molar | 4150 nM | 228 nM | 1960 nM | 5.81E−07 Molar | 684 nM | 1.48E−06 Molar | CC50 [7]: 3200 nM; GI50 [8]: 165 nM; LC50 (concentration causing 50% net cell killing) [8]: 2550 nM; TGI IGROV [8]: 8.27E−07 Molar; GI50 [9]: 888 nM; TGI HELA-APL [9]: 2.01E−06 Molar; CC50 [9]: 4550 nM; GI50 [10]: 114 nM; TGI LOVO [10]: 1.02E−06 Molar; CC50 [10]: 2970 nM; TGI HT-29 [11]: 6.78E−06 Molar; GI50 [11]: 391 nM; CC50 [11]: 6780 nM; GI50 [12]: 1780 nM; TGI LOVO-DOX [12]: 4.30E−06 Molar; CC50 [12]: 6780 nM
2 | C/C=C1\NC(=O)[C@H](Cc2ccccc2)NC(=O)[C@@H](C(C)C)NC(=O)[C@@H]([C@@H](C)CC)NC(=O)[C@H](NC(=O)[C@H](NC(=O)[C@H](CCCN)NC(=O)[C@H]2CCCN2C(=O)[C@H](NC(=O)[C@@H](NC(=O)[C@@H](NC(=O)[C@@H](NC(=O)CCCC(C)C)C(C)C)[C@@H](C)O)C(C)C)C(C)C)[C@@H](C)CC)[C@@H](C)OC(=O)[C@H](C(C)C)NC1=O [Compound 38, [Val^13]-KF] | 25.4 nM | 1.20E−07 Molar | 988 nM | 46 nM | 1.55E−07 Molar | 583 nM | 805 nM | 1.68E−06 Molar | 3550 nM | 9.88E−07 Molar | 307 nM | 2440 nM | 1970 nM | 2.97E−06 Molar | 4490 nM | 1660 nM | 4220 nM | 2.65E−06 Molar | 1280 nM | 2.28E−06 Molar | CC50 [7]: 4050 nM; GI50 [8]: 1010 nM; LC50 (concentration causing 50% net cell killing) [8]: 3530 nM; TGI IGROV [8]: 1.89E−06 Molar; GI50 [9]: 1850 nM; TGI HELA-APL [9]: 2.88E−06 Molar; CC50 [9]: 4490 nM; GI50 [10]: 1290 nM; TGI LOVO [10]: 2.40E−06 Molar; CC50 [10]: 4470 nM; TGI HT-29 [11]: 2.12E−06 Molar; GI50 [11]: 1160 nM; CC50 [11]: 3880 nM; GI50 [12]: 1120 nM; TGI LOVO-DOX [12]: 1.94E−06 Molar; CC50 [12]: 3360 nM
3 | C/C=C1\NC(=O)[C@H](Cc2ccccc2)NC(=O)[C@@H](C(C)C)NC(=O)[C@@H]([C@@H](C)CC)NC(=O)[C@H](NC(=O)[C@H](NC(=O)[C@H](CCCN)NC(=O)[C@H]2CCCN2C(=O)[C@H](NC(=O)[C@@H](NC(=O)[C@@H](NC(=O)[C@@H](CCC(=O)O)NC(=O)CCCC(C)C)[C@@H](C)O)C(C)C)C(C)C)[C@@H](C)CC)[C@@H](C)OC(=O)[C@H](C(C)C)NC1=O [Compound 39, [D-Glu^13]-KF] | 4100 nM | 6.63E−06 Molar | 6630 nM | 4180 nM | 6.63E−06 Molar | 6630 nM | 3390 nM | 6.63E−06 Molar | 6630 nM | 6.63E−06 Molar | 4410 nM | 6630 nM | 1290 nM | 2.29E−06 Molar | 4090 nM | 3480 nM | 6630 nM | 6.63E−06 Molar | 1270 nM | 2.47E−06 Molar | CC50 [7]: 4820 nM; GI50 [8]: 1330 nM; LC50 (concentration causing 50% net cell killing) [8]: 4110 nM; TGI IGROV [8]: 2.33E−06 Molar; GI50 [9]: 2750 nM; TGI HELA-APL [9]: 6.63E−06 Molar; CC50 [9]: 6630 nM; GI50 [10]: 889 nM; TGI LOVO [10]: 1.72E−06 Molar; CC50 [10]: 3340 nM; TGI HT-29 [11]: 2.16E−06 Molar; GI50 [11]: 1200 nM; CC50 [11]: 3870 nM; GI50 [12]: 889 nM; TGI LOVO-DOX [12]: 1.70E−06 Molar; CC50 [12]: 3260 nM
4 | C/C=C1\NC(=O)[C@H](Cc2ccccc2)NC(=O)[C@@H](C(C)C)NC(=O)[C@@H]([C@@H](C)CC)NC(=O)[C@H](NC(=O)[C@H](NC(=O)[C@H](CCCN)NC(=O)[C@H]2CCCN2C(=O)[C@H](NC(=O)[C@@H](NC(=O)[C@@H](NC(=O)[C@@H](CCC(N)=O)NC(=O)CCCC(C)C)[C@@H](C)O)C(C)C)C(C)C)[C@@H](C)CC)[C@@H](C)OC(=O)[C@H](C(C)C)NC1=O [Compound 40, [D-Gln^13]-KF] | 130 nM | 3.01E−07 Molar | 863 nM | 642 nM | 1.58E−06 Molar | 3860 nM | 1220 nM | 2.27E−06 Molar | 4200 nM | 7.83E−07 Molar | 318 nM | 2450 nM | 1310 nM | 2.24E−06 Molar | 3790 nM | 1790 nM | 5240 nM | 3.06E−06 Molar | 1230 nM | 2.34E−06 Molar | CC50 [7]: 4420 nM; GI50 [8]: 1040 nM; LC50 (concentration causing 50% net cell killing) [8]: 3620 nM; TGI IGROV [8]: 1.94E−06 Molar; GI50 [9]: 2280 nM; TGI HELA-APL [9]: 5.94E−06 Molar; CC50 [9]: 6640 nM; GI50 [10]: 664 nM; TGI LOVO [10]: 1.41E−06 Molar; CC50 [10]: 2980 nM; TGI HT-29 [11]: 1.87E−06 Molar; GI50 [11]: 949 nM; CC50 [11]: 3690 nM; GI50 [12]: 267 nM; TGI LOVO-DOX [12]: 8.23E−07 Molar; CC50 [12]: 2230 nM

From patent publication US20070117743A1, “New antitumoral compounds” (priority 2003, published 2007)
